Assay results from patent US4711898A, “4-quinolone derivatives having anti-inflammatory, anti-allergic, antitussive, expectorant and antithrombotic activity” (Nippon Shinyaku Co., Ltd., priority 1982, dated 1987).
Where two headings read alike, the source gives them in different places.

Tests used:
carrageenin edema = experiment: Carrageenin edema at the hind foot of rats; assay type: in vivo, SD-strain rats; settings: Rattus norvegicus, po, 3 h, read-out: % Inhibition (carrageenin edema)
Method: The anti-inflammatory action of the compounds of the present invention were evaluated by measuring the inhibition against carrageenin edema as set forth below. Carrageenin edema at the hind foot of rats: Experimental method. SD-strain rats of body weights of around 150 grams were used, each group consisting of five rats. A solution (0.1 ml) of 0.5% carrageenin dissolved in physiological saline water was subcutaneously injected into the right hind foot pat of the rats and, one hour prior to the injection of carrageenin, 200 mg/kg of test compound was given per os. Foot volumes of the rats before the carrageenin treatment and those of three hours after the treatment were measured and the differences were compared with those of the control group to adopt as a target of the effect of the compounds.

[1] = tested on: passive cutaneous anaphylaxis (DNP-As homocytotropic antiserum); experiment: passive cutaneous anaphylatic assay (PCA) in rats; assay type: in vivo, Wistar strain rats; settings: Rattus norvegicus, po, 1 h, 10 mg/kg orally, one hour before antigen, read-out: PCA Inhibition Ratio %
Method: (§1) The compounds of the present invention have been evaluated for their anti-allergenic action by passive cutaneous anaphylatic assay (PCA) in rats and by measuring the anti-SRS-A action using ileus of guinea pigs.
(i) Antiserum abundant in homocytotropic antibody is prepared by the same method as Tada and Okumura did (cf. Journal of Immunology, vol. 106, page 1002, 1971). Thus, 1 mg (calculated as an amount of protein) of DNP-As (2,4-dinitrophenylcoupled ascaris extract) prepared by methods of Strejan and Campbell (Journal of Immunology, vol. 98, p. 893, 1967) and of Eisen (Journal of Amer. Chem. Soc., vol. 75, p 4593, 1953) and 1×10^10pertussis vaccine are administered to each paw of Wistar strain rats (180 to 200 grams body weights) by dividing the dose by four. Five days later, 0.5 mg of DNP-As is administered into muscle of back. Eight days later from the initial immunization, blood is taken from discending aorta under anesthetizing with ether, the resulting serum is stored at -80° and is melted before use.
(ii) Effect of tested compounds is investigated as follows:
Anti-serum obtained by th method (i) is diluted with physiological saline solution double by double successively and 0.05 ml of each diluted solution is administered into the back of Wistar strain rats (140 to 160 grams body weight) intradermally. After 72 hours, a solution of 2 mg (calculated as protein) of DNP-As and 2.5 mg of Evans Blue dissolved in 1 ml of physiological saline solution is administered intraveously at a dose of 5 ml/kg. After 30 minutes from the antigen solution administration, the animals are killed and the diameters of blue spots which appeared at the place where antiserum was administered were measured. The PCA test is conducted by the same method as already described using a diluted solutions of antiserum which always show 10 mm or more of spot diameters and the effect of the test compounds is judged. Thus antiserum diluted solutions are administered into two places in the back. Test compounds are administered orally at the dose of 10 mg/kg one hour before administration of the antigen solution. From the skin of reacted parts of killed animals, leaked or emitted dyestuff is extracted and the amount of the dyestuff is measured. The inhibition ratio is calculated by the following expression: [formula] in which A' is an amount of dyestuff in the group treated with the test compounds and A is that in the control group.

[2] = tested on: SRS-A (slow reacting substance of anaphylaxis) contraction of ileum; experiment: Anti-SRS-A action using ileus of guinea pigs; assay type: cell-based, Hartley strain male guinea pigs; settings: Cavia porcellus, 5 min, 1/1000 mM; guinea pig ileum; SRS-A 20 units; compound five minutes before; read-out: 1/1000 mM SRS-A Inhibition Ratio %
Method: as §1
Anti-SRS-A action (An anti-acton against slow reacting substance of anaphylaxis).
Hartley strain male guinea pigs (300 to 350 grams body weight) are killed and 1.0 to 1.5 cm of ileum is immeidiately excised from ileocecal parts and is suspended in 10 ml of Tyrode solution (95% 02 -5% CO2 saturation) containing 10^-7 g/ml of atropine and 10^-6 g/ml of pyrilamine. SRS-A (20 units) (the amount of SRS-A showing the same contradiction as 5 ng of histamine is defined as 1 unit) prepared by using sensitized guinea pig lung is given to cause contraction there. Then antagonistic action of test compounds treated five minutes ago against the contraction is measured and recorded via isotonic transducer. [formula] in which A' is a height of contraction of SRS-A+test compound and A is that of SRS-A.

[3] = 200 mg/kg per os, one hour before carrageenin, foot volume three hours after

| Compound | inhibition in vivo at 200 mg/kg (carrageenin edema; [3]) | inhibition in vivo at 10 mg/kg [1] | inhibition at 1 µM [2] | inhibition in vivo at 200 mg/kg (carrageenin edema) |
| --- | --- | --- | --- | --- |
| CCOC(=O)CCCOC(=O)c1cccc2c(=O)cc(-c3ccccc3Cl)[nH]c12 [Example 124] | 14.5% | – | – | – |
| CCOC(=O)CC(=O)COC(=O)c1cccc2c(=O)cc(-c3ccccc3Cl)[nH]c12 [Example 130] | 18.3% | 20.3% | 12.7% | – |
| CCOC(=O)c1ccc2c(c1)C(=O)CC(c1ccccc1)=N2 [Example 4, Ethyl 2-phenyl-4-quinolone-6-carboxylate] | 14.2% | 25.7% | 27.5% | – |
| COC(=O)c1ccc2c(c1)C(=O)CC(c1ccccc1)=N2 [Example 1, Methyl 2-phenyl-4-quinolone-6-carboxylate] | 34% | 25.4% | 77% | – |
| Cc1ccc(-c2cc(=O)c3cccc(C(=O)OCCO)c3[nH]2)c(C)c1 [Example 136] | 26.9% | 19.4% | 15.4% | – |
| O=C(O)c1ccc2[nH]c(-c3ccccc3Cl)cc(=O)c2c1 [Example 22] | 14.8% | 35.8% | 26.4% | – |
| CC(C)COC(=O)c1cccc2c(=O)cc(-c3ccccc3Cl)[nH]c12 [Example 112] | 10% | 24.3% | 25% | – |
| CCOC(=O)c1cccc2c(=O)cc(-c3ccc(C(C)C)cc3)[nH]c12 [Example 106] | 50.9% | 33.4% | 44% | – |
| CCOC(=O)c1cccc2c(=O)cc(-c3ccccc3C)[nH]c12 [Example 104] | 53.7% | 10.4% | 19.8% | – |
| COC(=O)c1ccc2[nH]c(-c3cc(Cl)ccc3Cl)cc(=O)c2c1 [Example 39] | 30% | 24.8% | 66% | – |
| COc1ccc(-c2cc(=O)c3cccc(C(=O)O)c3[nH]2)cc1OC [Example 99] | 36.8% | 13.2% | 21.7% | – |
| CC(O)COC(=O)c1cccc2c(=O)cc(-c3ccccc3Cl)[nH]c12 (centres unmarked) [Example 125] | 17.2% | 10.4% | 15.6% | – |
| O=C(O)c1ccc2[nH]c(-c3ccc(Cl)c(Cl)c3)cc(=O)c2c1 [Example 38] | 12.8% | 20.4% | 20.5% | – |
| O=C(OCCO)c1cccc2c(=O)cc(-c3ccccc3F)[nH]c12 [Example 131] | 29.9% | 28.5% | 14% | – |
| O=C(OCCO)c1cccc2c(=O)cc(-c3ccc(Cl)cc3)[nH]c12 [Example 133] | 10% | 17% | 21.3% | – |
| CCOC(=O)c1cccc2c(=O)cc(-c3ccc(OC)cc3OC)[nH]c12 [Example 108] | 51% | 14% | 95% | – |
| COC(=O)c1ccc2[nH]c(-c3ccco3)cc(=O)c2c1 [Example 76] | 14.5% | 21.3% | 25.6% | – |
| CCOC(=O)c1cccc2c(=O)cc(-c3cccc(Cl)c3)[nH]c12 [Example 86] | 29.5% | 20.1% | 62.5% | – |
| CC(=O)Oc1ccccc1C(=O)O [Acetylsalicylic Acid, reference compound] | – | – | – | 31.6% |
| CCOC(=O)c1cccc2c(=O)cc(-c3ccc(Cl)cc3)[nH]c12 [Example 103] | – | 14.7% | 12.4% | – |
| O=C(O)c1ccc2[nH]c(-c3cccc(Cl)c3)cc(=O)c2c1 [Example 30] | – | 43% | 24.5% | – |
| COC(=O)c1ccc2[nH]c(-c3ccc(Cl)cc3)cc(=O)c2c1 [Example 32] | – | 24.4% | 20.6% | – |
